Literature values, collected in patent US20080113973A1, “Compositions and methods involving the combination of a thromboxane A2 receptor antagonist and an inhibitor of cyclooxygenase-2” (B.M.R.A. Corporation B.V., priority 2002, published 2008).

Time of peak plasma concentrations (after oral administration): 2 to 3 h | half life (in vivo): about 17 hours
SMILES: CS(=O)(=O)c1ccc(C2=C(c3ccccc3)C(=O)OC2)cc1 [Rofecoxib]
